According to patent US8536157B2, “Non-steroidal compounds” (The University of Melbourne, priority 2007, dated 2013):

Legend:
[1] = molecular target: proteins in rat lung membranes; assay: Competitive binding assay with [3H]-CP2117 on rat lung membranes (RLM); details: given as Log IC50 (negative values); displacement of 10 nM [3H]-CP2117, overnight at 4° C.; ND- not detected
[2] = test system: PGE2 release in U937 cells; assay: PGE2 release from PMA-treated U937 cells (radioimmunoassay); type: cell-based, human; details: 24 hour incubation; for activity at 1 µM: Homo sapiens, U-937, 24 h, read-out: Effects on PGE2 release in U937 cells at 1 μM as a % of PMA control, mean
Experimental: The U937 monocytic cell line (available from the ATCC, USA) is commonly used to evaluate anti-inflammatory agents. In the present experiment, U937 cells maintained in culture in a medium comprising RPMI containing (5% FCS v/v; supplemented with 100 U/ml penicillin, and […] streptomycin) were treated with phorbol myristate acetate (10 nM) then immediately dispersed into a 24 well cell culture plate at a concentration of 2×10^5 cells per ml in a volume of 1 ml per well. After 24 hours by which time the cells had adhered to the plastic substrate, they were treated with one of several analogues or with the vehicle of 0.1% DMSO. After a further 24 hour incubation period the supernatant was harvested and the content of prostaglandin E2 was measured by a radioimmunoassay, as described by Vlahos, R., & Stewart, A. G. (1999). (“Interleukin-1α and Tumour necrosis factor-α inhibit airway smooth muscle DNA synthesis by a glucocorticoid-sensitive induction of cyclo-oxygenase-2. British Journal of Pharmacology, 126, 1315-1324). […] The data in the table are presented as percentage of the control level of Prostaglandin E2.
Several analogues were evaluated for their actions on the release of PGE2 from the human U937macrophage cell line. Cells were stimulated by exposure to PMA 1 nM and after a period allowed for adherence of cells to the plastic culture dish, the cell were treated with one of several CP analogues. […] The chemical structures of CP1-56 and CP1-58 are as follows: […]

[3] = test system: PGE2 release in J774 macrophages; assay: PGE2 release from LPS/IFNγ-stimulated J774 macrophages (radioimmunoassay); type: cell-based, murine; details: Mus musculus, J774, 24 h, 30 min pre-treatment, 24 hour incubation; for activity at 1 µM: read-out: Effects on PGE2 release in J774 macrophages at 1 μM as a % of LPS/IFNγ control, mean; for activity at 10 µM: l0 μM, read-out: Effects on PGE2 release in J774 macrophages at l0 μM as a % of LPS/IFNγ control, mean

SMILES	Log IC50 RLM binding [1]	melting point [°C]	activity at 1 µM [2] [%]	also measured
Brc1cc2c(cc1/C=N/OCc1ccccc1)OCO2 [Compound 10-OK-07a]	−4.76		114	
C/C(=N\OCc1ccc2nonc2c1)c1ccccc1 [AA-1-53]			91	
COc1ccc(/C(C)=N/OCc2ccc3nonc3c2)cc1O [AA-1-80]	−6.33		38	
COc1ccc(/C(C)=N/OCc2ccc3nonc3c2)cc1 [AA-1-54]			76	
COc1cc2c(cc1OS(N)(=O)=O)C(=NOCc1ccc([N+](=O)[O-])cc1)C(C)(C)CC2 [AA-1-79]	−4.58		113	
COc1cc(/C(C)=N/OCc2ccc3nonc3c2)ccc1OS(N)(=O)=O [AA-1-78]	−4.87		19	
COc1cc(Br)c(/C(C)=N/OCc2ccc([N+](=O)[O-])cc2)cc1O [CP302108-Major, (E)-2′-Bromo-5′-hydroxy-4′-methoxyacetophenone O-4-Nitrobenzyl Oxime]		136.8 to 138.4		
COc1cc([C@H]2CC[C@](C)(CO)CC2)c(C(C)=NOCc2ccc([N+](=O)[O-])cc2)cc1O [CP30450B, 2′-(4-hydroxymethyl-4-methyl)cyclohexyl-5′-hydroxy-4′-methoxyacetophenone O-4-Nitrobenzyl Oxime]	−5.85			Effects on PGE2 release in U937 cells at 1 μM as a % of PMA control, mean [2]: 77 % of PMA control
COc1cc(-c2ccc(NC(=O)OC(C)(C)C)cc2)c(/C(C)=N/OCc2ccc([N+](=O)[O-])cc2)cc1O [CP30342, (E)-2′-(4-tert-Butoxycarbonylaminophenyl)-5′-hydroxy-4′-methoxyacetophenone O-4-Nitrobenzyl Oxime]	−6.79	91 to 96.8		activity at 1 µM [3]: 19%; activity at 10 µM [3]: 0%
COc1cc2c(cc1O)/C(=N/OCc1ccc([N+](=O)[O-])cc1)C(C)(C)CC2 [AA-1-39-2]	−6.19		100	
COc1cc(/C(C)=N/OCc2ccc3nonc3c2)ccc1O [AA-1-56]	−6.21		16	
COc1ccc(C(C)=NOCc2ccc3nonc3c2)cc1OS(N)(=O)=O [AA-1-81]	−5.25		43	
C/C(=N\OCc1ccc2nonc2c1)c1ccc2c(c1)OCO2 [AA-1-55]			90	
COc1ccc(/C(C)=N/OCc2ccc3nonc3c2)cc1OC [AA-1-58]	−4.74		111	
COc1cc([C@H]2CC[C@](C)(CO)CC2)c(C(C)=NOCc2ccc([N+](=O)[O-])cc2)cc1O [CP30450A, 2′-(4-hydroxymethyl-4-methyl)cyclohexyl-5′-hydroxy-4′-methoxyacetophenone O-4-Nitrobenzyl Oxime]	−5.81		80	

The next lines start with results.

Log IC50 RLM binding [1]	melting point [°C]	SMILES	activity at 1 µM [2] [%]	also measured
	123.6 to 125.3	C/C(=N\OCc1ccc([N+](=O)[O-])cc1)c1cccc(O)c1 [CP30260, (E)-3′-Hydroxyacetophenone O-4-Nitrobenzyl Oxime]		
	118.4 to 121	COc1ccc(/C(C)=N/OCc2ccc([N+](=O)[O-])cc2)cc1OC [CP30257, (E)-3′,4′-Dimethoxyacetophenone O-4-Nitrobenzyl Oxime]		
	65	COc1cc(/C(C)=N/OCc2ccc3nonc3c2)ccc1F [CP9129, 4′-Fluoro-3′-methoxyacetophenone-O-[(benzo[c][1,2,5]oxadiazol-5-yl)methyl]oxime]		
−6.65	118.4 to 121.1	COc1cc(/C(C)=N/OCc2ccc([N+](=O)[O-])cc2)ccc1O [CP30261, (E)-4′-Hydroxy-3′-methoxyacetophenone O-4-Nitrobenzyl Oxime]		
	158.7 to 160.5	C/C(=N\OCc1ccc([N+](=O)[O-])cc1)c1ccc2c(c1)OCO2 [CP30255, (E)-3′,4′-Methylenedioxyacetophenone O-4-Nitrobenzyl Oxime]		
−5.73		COc1cc([C@H]2CC[C@@](C)(CO)CC2)c(C(C)=NOCc2ccc([N+](=O)[O-])cc2)cc1O [CP30451, 2′-(4-hydroxymethyl-4-methyl)cyclohexyl-5′-hydroxy-4′-methoxyacetophenone O-4-Nitrobenzyl Oxime]	67	
−5.5	67	COc1ccc(/C(C)=N/OCc2cccc(F)c2)cc1F [CP9125, 3′-Fluoro-4′-methoxyacetophenone-O-3-fluorobenzyloxime]		
	88.2 to 89.5	COc1ccc(/C(C)=N/OCc2ccc([N+](=O)[O-])cc2)cc1 [CP30253, (E)-4′-Methoxyacetophenone O-4-Nitrobenzyl Oxime]		activity at 1 µM [3]: 47%; activity at 10 µM [3]: 4%
	62 to 63	COc1ccc(/C(C)=N/OCc2ccc(F)c(F)c2)cc1F [CP9126, 3′-Fluoro-4′-methoxyacetophenone-O-3,4-difluorobenzyloxime]		
−6.86	47.7 to 50.2	COc1ccc(/C(C)=N/OCc2cc(F)cc(F)c2)cc1O [CP30274, (E)-3′-Hydroxy-4′-methoxyacetophenone O-3,5-Difluorobenzyl Oxime]		
−6.46	97.7 to 98.7	COC(=O)c1ccc(CO/N=C(\C)c2ccc(OC)c(O)c2)cc1 [CP30263, (E)-3′-Hydroxy-4′-methoxyacetophenone O-4-Carbomethoxybenzyl Oxime]		
	44.5 to 46.1	COc1ccc(/C(C)=N/OCc2ccc([N+](=O)[O-])cc2)cc1OC(C)C [CP30254, (E)-3′-Isopropoxy-4′-methoxyacetophenone O-4-Nitrobenzyl Oxime]		
−5.99	111.5 to 114.1	COc1cc(-c2ccc(C(F)(F)F)cc2)c(/C(C)=N/OCc2ccc([N+](=O)[O-])cc2)cc1O [CP30346, (E)-2′-(4-Trifluoromethylphenyl)-5′-hydroxy-4′-methoxyacetophenone O-4-Nitrobenzyl Oxime]		activity at 1 µM [3]: 78%; activity at 10 µM [3]: 34%
−6.05	125.9 to 129.7	COc1ccc(/C(C)=N/OCc2ccc(C#N)cc2)cc1O [CP30283, (E)-3′-Hydroxy-4′-methoxyacetophenone O-4-Cyanobenzyl Oxime]		
	67 to 68	COc1ccc(/C(C)=N/OCc2ccc([N+](=O)[O-])cc2)cc1F [CP9123, 3′-Fluoro-4′-methoxyacetophenone-O-4-nitrobenzyloxime]		
	93 to 94	C/C(=N\OCc1ccc([N+](=O)[O-])cc1)c1ccc(O)c(F)c1 [CP9132, 3′-Fluoro-4′-hydroxyacetophenone-O-4-nitrobenzyloxime]		
−6.33	105.9 to 108.7	COc1cc(-c2ccc(C)cc2)c(/C(C)=N/OCc2ccc([N+](=O)[O-])cc2)cc1O [CP30345, (E)-5′-Hydroxy-4′-methoxy-2′-(4-methylphenyl)acetophenone O-4-Nitrobenzyl Oxime]		activity at 1 µM [3]: 76%; activity at 10 µM [3]: 1%
	91.3 to 92.3	C/C(=N\OCc1ccc([N+](=O)[O-])cc1)c1ccccc1 [CP30252, (E)-Acetophenone O-4-Nitrobenzyl Oxime]		
−5.54		COc1cc([C@H]2CC[C@](C)(CO)CC2)c(C(C)=NOCc2ccc3nonc3c2)cc1O [CP30452, 2′-(4-Hydroxymethyl-4-methyl)cyclohexyl-5′-hydroxy-4′-methoxyacetophenone O-(benzofurazan-5-yl)methyl Oxime]	89	
